Measurements from patent US12162893B2 (Erasca, Inc., priority 2020, dated 2024).

Target: T1, mutant G12C K-RAS (Homo sapiens, UniProt P01116, G12C)
T1 construct: made in house; host or cells: E. coli BL21
Assay: covalent adduct formation (CAF) with mutant G12C K-RAS
Format: binding
Conditions: for % CAF @ 10 μM,1 h: Table 6; for % CAF (60 min): after 60 minutes at 10 micromolar
Experimental: Embodiments disclosed herein are further illustrated by the following examples in Tables 1-4 and the Examples hereinbelow. The Tables indicate the compound number, structure, the observed mass spectral molecular weight peak, and covalent adduct formation (CAF) with a mutant G12C K-RAS after 60 minutes at a concentration of 10 micromolar.

[1] = Table 1, Pyrimidone Core-Morpholine Unsubstituted

Row | Structure (SMILES) | % CAF @ 10 μM,1 h [%] | other results
1 | C=CC(=O)N1C[C@H](C)N(c2nc(=O)n3c4c(c(-c5c(C)ccc6[nH]ncc56)c(Cl)cc24)OC[C@@H]3CCCN2C3CCC2COC3)C[C@H]1C [Example 281, (3S,10S)-3-(3-(3-oxa-8-azabicyclo[3.2.1]octan-8-yl)propyl)-7-((2S,5R)-4-acryloyl-2,5-dimethylpiperazin-1-yl)-9-chloro-10-(5-methyl-1H-indazol-4-yl)-2,3-dihydro-5H-[1,4]oxazino[2,3,4-ij]quinazolin-5-one] | 0 | 
2 | C#CC(=O)N1C[C@H](C)N(c2nc(=O)n3c4c(c(-c5ccc(F)cc5F)c(Cl)cc24)OCC3)C[C@H]1C [Example 14] |  | % CAF (60 min) [1]: 46%
3 | C=CC(=O)N1C[C@H](C)N(c2nc(=O)n3c4c(c(-c5c(O)cccc5F)c(Cl)cc24)OC[C@@H]3CN2CCN(C)CC2)C[C@H]1C (atropisomer, axis not shown) [Example 305, (3S,10R)-7-((2S,5R)-4-acryloyl-2,5-dimethylpiperazin-1-yl)-9-chloro-10-(2-fluoro-6-hydroxyphenyl)-3-((4-methylpiperazin-1-yl)methyl)-2,3-dihydro-5H-[1,4]oxazino[2,3,4-ij]quinazolin-5-one] | 0 | 
4 | C=CC(=O)N1C[C@H](C)N(c2nc(=O)n3c4c(c(-c5ccc(F)cc5F)c(Cl)cc24)OC[C@H]3CCCN2CC3(COC3)C2)C[C@H]1C [Example 299, (3R)-3-(3-(2-oxa-6-azaspiro[3.3]heptan-6-yl)propyl)-7-((2S,5R)-4-acryloyl-2,5-dimethylpiperazin-1-yl)-9-chloro-10-(2,4-difluorophenyl)-2,3-dihydro-5H-[1,4]oxazino[2,3,4-ij]quinazolin-5-one] | 75.4 | 
5 | C=CC(=O)N1C[C@H](C)N(c2nc(=O)n3c4c(c(-c5ccc(F)cc5F)c(Cl)cc24)OC[C@H]3CC2CCN(C)CC2)C[C@H]1C [Example 288, (3R)-7-((2S,5R)-4-acryloyl-2,5-dimethylpiperazin-1-yl)-9-chloro-10-(2,4-difluorophenyl)-3-((1-methylpiperidin-4-yl)methyl)-2H-[1,4]oxazino[2,3,4-ij]quinazolin-5(3H)-one] | 95.9 | 
6 | C=CC(=O)N1CCN(c2nc(=O)n3c4c(c(-c5c(O)cccc5F)c(Cl)cc24)OC[C@H]3CO)[C@@H](C)C1 [Example 22, (3R,10S)-7-((S)-4-acryloyl-2-methylpiperazin-1-yl)-9-chloro-10-(2-fluoro-6-hydroxyphenyl)-3-(hydroxymethyl)-2H-[1,4]oxazino[2,3,4-ij]quinazolin-5(3H)-one] |  | % CAF (60 min) (Table 2, Pyrimidone Core-Morpholine Substituted): 87.6%
7 | C=CC(=O)N1CCN(c2nc(=O)n3c4c(c(-c5c(O)cccc5F)c(Cl)cc24)OCC3)CC1 [Example 5, (S)-7-(4-acryloylpiperazin-1-yl)-9-chloro-10-(2-fluoro-6-hydroxyphenyl)-2H-[1,4]oxazino[2,3,4-ij]quinazolin-5(3H)-one] |  | % CAF (60 min) [1]: 87.6%
8 | C=CC(=O)N1CCN(c2nc(=O)n3c4c(c(-c5c(O)cccc5F)c(Cl)cc24)OC[C@H]3CN2CCOCC2)[C@@H](C)C1 [Example 199, (3R,10R)-7-((S)-4-acryloyl-2-methylpiperazin-1-yl)-9-chloro-10-(2-fluoro-6-hydroxyphenyl)-3-(morpholinomethyl)-2,3-dihydro-5H-[1,4]oxazino[2,3,4-ij]quinazolin-5-one] | 0 | 
9 | C=CC(=O)N1C[C@H](C)N(c2nc(=O)n3c4c(c(-c5cccc6ccccc56)c(Cl)cc24)OC[C@@H]3CN2CCN(C)CC2)C[C@H]1C (atropisomer, axis not shown) [Example 309, (3S,10R)-7-((2S,5R)-4-acryloyl-2,5-dimethylpiperazin-1-yl)-9-chloro-3-((4-methylpiperazin-1-yl)methyl)-10-(naphthalen-1-yl)-2,3-dihydro-5H-[1,4]oxazino[2,3,4-ij]quinazolin-5-one] | 94.4 | 
10 | C=CC(=O)N1C[C@H](C)N(c2nc(=O)n3c4c(c(-c5ccc(F)cc5F)c(Cl)cc24)OC[C@H]3CC2CCN(CC)CC2)C[C@H]1C [Example 333, (3R)-7-((2S,5R)-4-acryloyl-2,5-dimethylpiperazin-1-yl)-9-chloro-10-(2,4-difluorophenyl)-3-((1-ethylpiperidin-4-yl)methyl)-2H-[1,4]oxazino[2,3,4-ij]quinazolin-5(3H)-one] | 83.9 | 
11 | C=CC(=O)N1C[C@H](C)N(c2nc(=O)n3c4c(c(-c5ccc(F)cc5F)c(Cl)cc24)OC[C@@H]3COC2CCN(C)C2)C[C@H]1C (stereo in doubt) [Example 313, (3S)-7-((2S,5R)-4-acryloyl-2,5-dimethylpiperazin-1-yl)-9-chloro-10-(2,4-difluorophenyl)-3-((((S)-1-methylpyrrolidin-3-yl)oxy)methyl)-2,3-dihydro-5H-[1,4]oxazino[2,3,4-ij]quinazolin-5-one] | 66.1 | 
12 | C=CC(=O)N1C[C@H](C)N(c2nc(=O)n3c4c(c(-c5ccc(F)cc5F)c(Cl)cc24)OC[C@H]3CCCN2CC[C@H](F)C2)C[C@H]1C [Example 330, (3R)-7-((2S,5R)-4-acryloyl-2,5-dimethylpiperazin-1-yl)-9-chloro-10-(2,4-difluorophenyl)-3-(3-((S)-3-fluoropyrrolidin-1-yl)propyl)-2,3-dihydro-5H-[1,4]oxazino[2,3,4-ij]quinazolin-5-one] | 91.7 | 
13 | C=CC(=O)N1C[C@H](C)N(c2nc(=O)n3c4c(c(-c5cccc6ccccc56)ccc24)OCC3)C[C@H]1C [Example 13, 7-((2S,5R)-4-acryloyl-2,5-dimethylpiperazin-1-yl)-10-(naphthalen-1-yl)-2H-[1,4]oxazino[2,3,4-ij]quinazolin-5(3H)-one] |  | % CAF (60 min) [1]: 3%
14 | C=CC(=O)N1C[C@H](C)N(c2nc(=O)n3c4c(c(-c5ccc(F)cc5F)c(Cl)cc24)OC[C@@H]3CC2(O)CCN(C)CC2)C[C@H]1C [Example 304, (3S)-7-((2S,5R)-4-acryloyl-2,5-dimethylpiperazin-1-yl)-9-chloro-10-(2,4-difluorophenyl)-3-((4-hydroxy-1-methylpiperidin-4-yl)methyl)-2,3-dihydro-5H-[1,4]oxazino[2,3,4-ij]quinazolin-5-one] | 45.1 | 
15 | C=CC(=O)N1C[C@H](C)N(c2nc(=O)n3c4c(c(-c5c(O)cccc5F)c(Cl)cc24)OC[C@@H]3CN2CCC(F)(F)C2)C[C@H]1C [Example 221, (3S,10S)-7-((2S,5R)-4-acryloyl-2,5-dimethylpiperazin-1-yl)-9-chloro-3-((3,3-difluoropyrrolidin-1-yl)methyl)-10-(2-fluoro-6-hydroxyphenyl)-2,3-dihydro-5H-[1,4]oxazino[2,3,4-ij]quinazolin-5-one] | 70.9 | 
16 | C=CC(=O)N1C[C@H](C)N(c2nc(=O)n3c4c(c(-c5cccc6ccccc56)c(Cl)cc24)OC[C@H]3CCCN2C[C@@H]3C[C@H]2CO3)C[C@H]1C (atropisomer, axis not shown) [Example 322, (3R,10S)-3-(3-((1S,4S)-2-oxa-5-azabicyclo[2.2.1]heptan-5-yl)propyl)-7-((2S,5R)-4-acryloyl-2,5-dimethylpiperazin-1-yl)-9-chloro-10-(naphthalen-1-yl)-2,3-dihydro-5H-[1,4]oxazino[2,3,4-ij]quinazolin-5-one] | 78.5 | 
